Experimental data from patent US20110189174A1, “COMPOSITIONS AND METHODS FOR TREATING, REDUCING, AMELIORATING, ALLEVIATING, OR INHIBITING PROGRESSION OF, PATHOGENIC OCULAR NEOVASCULARIZATION” (priority 2010, published 2011).

Experiments:
[1] = test system: human retinal endothelial cells (HREC); assay: Testing 5: VEGF-induced HREC proliferation (MTS assay), echistatin and Avastin alone and in combination; format: cell-based; details: echistatin 2 nM
Procedure: HREC were first cultured overnight in a 96-well plate coated with fibronectin. The next day, cells were serum-starved for 2 h before treatment. Medium containing different agents as shown in table below was pre-incubated for 1 h before being added to cells. The cells were cultured at 37° C., 5% CO2, and 95% humidity for another 3 days. After that, cell proliferation was estimated by the MTS assay. […] Normal human IgG was also added to different groups in such a way that all groups contained the same amounts of IgG protein.
A 96-well plate was coated with human fibronectin (10 μg/mL) for 5 hours. HREC were collected from flasks by EDTA-trypsin treatment and re-suspended in 10% FBS CS-C medium at 15,000 cells/mL. Cells (200 μL) were added to the plate and cultured overnight at 37° C., 5% CO2, and 95% humidity. Next day, the medium was removed and 200 μl/well serum free medium was added.
All medium solutions were incubated for 1 h at 37° C. After carefully aspirating the medium from cells, […], of the medium containing the different agents was added into appropriate wells. The cells were cultured for another 3 days.
At the end of incubation, the medium was carefully aspirated from cells and 120 μl of MTS working solution was added into all wells including blank wells (without cells). The plate was incubated at 37° C., 5% CO2, and 95% humidity for 1 hour and then absorbance was read by a plate reader at 490 nm wavelength.
Median optical density (OD) was generated from different groups. Data were expressed as mean±SEM of the OD values. Statistical analysis was performed using a one or two-way ANOVA using Box-Cox transformed data if needed, and P<0.05 was considered statistically significant. […] All the data from the individual wells were fitted to a re-parameterized four-parameter logistic equation to obtain IC50 using similar methodology as that previously described and utilizing the statistical analysis software JMP (SAS Institute, Cary, N.C.).

[2] = test system: laser-induced CNV in rats; assay: Laser-induced choroidal neovascularization in rats (CNV area, fluorescein angiography grades); format: in vivo, Brown Norway rats; details: day 14, 200 μg/eye (echistatin 5 μg, Avastin 125 μg); for Number of lesions in FA grade 1 / Number of lesions in FA grade 2 / Number of lesions in FA grade 3 / Number of lesions in FA grade 4: unobstructed lesions
Procedure: Fifty six male Brown Norway rats, approximately 200-300 grams of body weight and two months of age, were used in this study. This study was performed in two cohorts and only one eye of each rat was used.
The pupils were dilated and then the rats were anesthetized as described in baseline examination. The rats were positioned in front of a slit lamp system (Haag-Streit USA, Mason, Ohio). […] A diode laser (OcuLight TX, IRIDEX, Mountain View, Calif.) was used for photocoagulation (532 nm wavelength, 120 mW power, 50 μm spot size and 0.05 seconds duration). For each right eye, a series of six photocoagulation sites were concentrically placed between the major retinal vessels at equal distance (about two optic discs) around the optic nerve head. […] If a significant retinal or subretinal hemorrhage occurred during the laser photocoagulation, then the left eye was be photocoagulated and used as the experimental eye.
Grade 1 lesions had no hyperfluorescence.
The eyes were collected on day 14 and immediately fixed in 4% paraformaldehyde in PBS (pH 7.4) for one and half hours, and then transferred into cold PBS and kept at 4° C. for further processing.
The incubation was performed in a humidified dark chamber with gentle rotation at 4° C. overnight. On the second day, the retinal pigment epithelium (RPE)-choroidsclera complexes were washed with cold IHC buffer, mounted with ProLong® Gold antifade reagent, covered with circular cover glass, and sealed with clear nail polish. Fluorescent images were collected with a confocal microscope (FluoView FV 1000 confocal microscope, Olympus, Center Valley, Pa.) and a 4×, 0.16 numerical aperture objective lens. […] The laser sites were identified by merging images of the green (phalloidin labeling RPE) and the red (isolectin IB4 labeling CNV) channels. CNV complexes were identified using the red channel (isolectin), and their areas were quantified using the FluoView software (Version 1.7a).
Average FA scores and areas of CNV complexes in each group were presented as mean±SEM, unless otherwise indicated. They were analyzed using a one-way ANOVA followed by a Tukey-Kramer test after Box-Cox transformations. All statistics were performed utilizing the statistical analysis software JMP (SAS Institute, Cary, N.C.). p values ≦0.05 were considered statistically significant.

[3] = test system: human retinal endothelial cells (HREC); assay: PMA-induced HREC network formation in fibrin gel; format: cell-based; details: PMA 25 ng/mL, vs PMA control
Procedure: Prior to the start of the experiment, HREC from Cell Systems were cultured in flask in CS-C complete medium. The tube formation assay was performed in a 96-well plate pre-coated with fibrin gel. HREC were collected from flasks and re-suspended 1% FBS EBM-2 medium. Cells were pre-incubated with the integrin antagonists, echistatin or vehicle control for 30 min before loading onto the fibrin gel. Images were taken at 9 h.
Thrombin solution and fibrinogen solutions were allowed to thaw at room temperature and 37° C. water bath, respectively. Fibrinogen solution at 30 μL was added into the desired number of wells in a 96-well plate. Plate was gently shaken to ensure uniform coverage of fibrinogen solution in the well. Thrombin at 20 μL was added into each well. The plate was gently shaken immediately to ensure the thrombin was mixed well with fibrinogen. The plate was placed at 37° C. overnight to allow the fibrin gel to polymerize.
HREC were trypsinized at about 80% confluence and counted by standard hemocytometer methods. After deactivating trypsin with 5 mL of 10% FBS EBM-2 medium, the cells were centrifuged (800 rpm, 8 min) and re-suspended at 2×10^5 cells/mL in 1% FBS EBM-2 medium
Cells were pre-incubated with integrin compounds or echistatin at 37° C., 5% CO2, and 95% humidity for 30 minutes before mixing with PMA medium. The final concentrations of all agents are shown in the design table. The 100 μL of the cell mixture was added onto the gel and cells were cultured at 37° C., 5% CO2, and 95% humidity. Images were taken at different time points.
The network formation scoring system (a five point-scale)
Each well in one group was given a score and then averaged. Data were expressed as mean±SEM of network formation scores. Statistical analysis was performed using a one-way ANOVA-Dunnett's test in raw data, and p<0.05 was considered statistically significant. Data analysis was performed using statistical analysis software JMP (SAS Institute, Cary, N.C.).

[4] = Ocular clinical findings in rats 14 days after intravitreal injection; details: for Intraocular inflammation and retinal vascular congestion: Day 14 after intravitreal injection
Procedure: The anterior segment of the eye was examined using a slit-lamp biomicroscopy for excluding any animals with abnormalities that might interfere with the study. Fundus photography and fluorescein angiography (FA) were performed to document the health of the retina and the ocular circulation using a TRC 50EX fundus camera (Topcon). For FA, 10% sodium fluorescein was injected intravenously (50 mg/kg of body weight) through the tail vein or the vein under the incisor before the procedure.
Immediately after placement of laser photocoagulation, the experimental eyes received an intravitreal injection of either a compound or a vehicle as described in Table 5. Following the disinfection of ocular surface with 5% betadine and 0.9% saline solutions, the injections were performed with aid of a surgical microscope using 0.3 mL syringes with a 31-gauge ½-inch long needle (Ultra-Fine II™ Insulin syringe, BD, Franklin Lakes, N.J.).
Two weeks after photocoagulation, all rats were examined under anesthesia and pupil dilation with slit-lamp biomicroscopy, fundus photography and FA as described in the baseline examination.

[5] = test system: human retinal endothelial cells (HREC); assay: Testing 7: VEGF-induced HREC proliferation (MTS assay), integrin antagonists and Lucentis alone and in combination; format: cell-based; details: study II; compound 1 nM; Lucentis 1 ng/mL
Procedure: HREC were first cultured overnight in a 96-well plate coated with fibronectin. The next day medium containing different agents as shown in Tables 14 and 15 was pre-incubated for 1 hour before being added into appropriate wells. The cells were cultured at 37° C., 5% CO2, and 95% humidity for another 3 days. After that, cell proliferation was estimated by the MTS assay. In the first study we used VEGF 10 ng/mL (about EC80 in study PH08169), Lucentis® 1 ng/mL (about EC25 in study PH09038) and 5 doses of BOL-303055-X. Normal IgG (1 ng/ml) was also added to groups containing no Lucentis®. All groups contained the same amount of 0.1% DMSO. In the second study, all five compounds (BOL-303049-X, BOL-303050-X, BOL-303051-X, BOL-303054-X and BOL-303055-X) were tested at 1 nM with other conditions remaining the same.
A 96-well plate was coated with human fibronectin (10 μg/mL) for 5 hours at 37° C. HREC were washed with HBSS buffer once, tripsinized and re-suspended in 10% FBS CS-C medium at 18,000 cells/mL. Cells (200 μL) were added to the plate and cultured overnight at 37° C., 5% CO2, and 95% humidity. Next day, the cells were serum-starved for 2 hours.
For study I, VEGF at 10 ng/mL, Lucentis® at 1 ng/mL and BOL-303055-X at 0.1, 0.3, 1, 3 and 10 nM were prepared in 1% FBS CS medium as shown in Table 14. Normal IgG (1 ng/mL) were added to groups containing no Lucentis®. All medium solutions were incubated for 1 hour at 37° C. After carefully medium was aspirated, 200 μL of the medium containing different agents were then added into appropriate wells. The cells were cultured for another 3 days. For the study II as shown in the Table 15, five compounds were tested at 1 nM with other conditions remaining the same as study I.
At the end of incubation, the medium was carefully aspirated from cells and 120 μl of MTS working solution was added into all wells including blank wells (without cells). The plates were incubated at 37° C., 5% CO2, and 95% humidity for 1 hour and then read by a plate reader at 490 nm wavelength.
Median optical density (OD) was generated from different groups. Data were expressed as mean±SEM of the OD values. Statistical analysis was performed using three-way ANOVA after Box-Cox transformations, and p<0.05 was considered statistically significant. To evaluate whether the effects of the combinations were either synergistic or additive, net inhibitions were calculated by subtracting the basal levels in the presence of VEGF from the individual treatments (Lucentis® and Integrin blockers) and the combinations. […] Data analysis was performed utilizing the statistical analysis software JMP (SAS Institute, Cary, N.C.).

[6] = one intravitreal injection after laser
[7] = Day 14, 200 μg/eye intravitreal

Compound | Enhancement of Avastin potency [1] | Inhibition of VEGF-induced HREC proliferation, agent alone ([1]; Avastin 0.625-10 ng/ml (significant at 10 ng/ml), VEGF 10 ng/mL) | HREC proliferation under basal conditions ([1]; Avastin 0.625-10 ng/ml, no VEGF) | Combination effect with Avastin on VEGF-induced HREC proliferation (synergistic/additive) ([1]; Avastin 0.625 to 10 ng/ml) | CNV area / development of CNV on isolectin IB4-labeled flat mounts compared to vehicle-treated controls [2, 6] | Mean score of fluorescein leakage (FA score) compared to vehicle-treated controls [2, 6] | Number of lesions in FA grade 1 [2] | Number of lesions in FA grade 2 [2] | Number of lesions in FA grade 3 [2] | Number of lesions in FA grade 4 [2] | Inhibition of PMA-induced HREC network formation in fibrin gel ([3]; 10 nM) | Cataract formation ([4]; Day 14, echistatin 5 μg/eye intravitreal) | Intraocular inflammation and retinal vascular congestion [4] | Combination effect with Lucentis on VEGF-induced HREC proliferation (synergistic/additive) [5] | Inhibition of PMA-induced HREC network formation in fibrin gel ([3]; 1 nM) | Eyes with anterior chamber inflammation/Total eyes [4, 7] | Eyes with retinal vascular congestion/vessel-observable eyes [4, 7] | Posterior synechiae of iris [4, 7]
Echistatin [reference compound] | approximately 1.6 fold | not statistically significant | significantly inhibited | additive effects | smaller area of CNV | smaller means | 0 | 12 | 3 | 2 | significantly inhibited | Two eyes treated with echistatin developed cataract | no intraocular inflammation and retinal vascular congestion was recorded |  |  |  |  | 
CC1(C)O[C@@H]2C[C@H]3[C@@H]4CCC5=CC(=O)C=C[C@]5(C)[C@@]4(F)[C@@H](O)C[C@]3(C)[C@]2(C(=O)CO)O1 [TA, triamcinolone acetonide, reference compound] |  |  |  |  |  |  | 3 | 11 | 4 | 0 |  |  | no intraocular inflammation and retinal vascular congestion was recorded |  |  |  |  | 
Cc1nc(NC[C@H](NC(=O)OCC2CCCCC2)C(=O)O)c(C)c(N2CCC(c3ccc4c(n3)NCCC4)CC2)n1 [BOL-303051-X] |  |  |  |  |  | smaller means | 2 | 3 | 9 | 10 | significantly inhibited |  |  | additive effects | significantly inhibited | 3/6 | 0/4 | 
COc1ccc(CCOC(=O)N[C@@H](CNc2nc(C)nc(N3CCC(c4ccc5c(n4)NCCC5)CC3)c2C)C(=O)O)cc1 [BOL-303049-X] |  |  |  |  |  |  | 0 | 0 | 0 | 0 | significantly inhibited |  | most severe inflammation | synergistic effect | significantly inhibited | 6/6 | 1/1 | Posterior synechiae of iris occurred in several eyes
